Measurements reported in patent US12702675B2, “Tetrahydrococannabinolic acid cocrystals” (Manoira Corporation, priority 2020, dated 2026).

Tests used:
[1] = Solid-state stability study, accelerated conditions (40° C. and 75% relative humidity, 14 days); type: physicochemical; details: 40° C./75% RH, 2 weeks, sealed container
Experimental: A study was carried out to examine the physical stability of the tetrahydrocannabinolic acid cocrystals with respect to solid form conversion or signs of decomposition over time under both ambient and accelerated conditions.

[2] = Solid-state stability study, ambient conditions in clear glass vial for 6 months; type: physicochemical

In the case of “1:1 tetrahydrocannabinolic acid ethyl maltol cocrystal [1:1 THCA ETHYL MALTOL]”, the Appearance ([1]; 50 mg solid) is reported as “No change”, the XRPD analysis ([1]; form change by XRPD) is reported as “slight signs of dissociation” and the Appearance ([2]; 50 mg solid) is reported as “No change”. For the same substance, the XRPD analysis ([2]; form change by XRPD) was “No change”.
